The source of these data is US8618094B2, “Fused substituted aminopyrrolidine derivative” (Daiichi Sankyo Company, Limited, priority 2007, dated 2013).

Data set [1] in a line: Mouse phototoxicity test after intravenous administration. It is filed as in vivo.
The test system of another data set is mouse bone marrow. The experiment in a line: Mouse bone marrow micronucleus test after intravenous administration. It is filed as in vivo. The text has this:
The compound represented by the formula 365 was confirmed to be positive for induction of micronuclei in a mouse bone marrow micronucleus test after intravenous administration.

For the next data set, the system named is H. influenzae ATCC49247. Description: Antibacterial activity (MIC), standard method of the Japanese Society of Chemotherapy. The class given is cell-based. To be noted: Haemophilus influenzae. As for the experimental part: (§1) Antibacterial activity of the compounds of the present invention was measured in accordance with the standard method specified by the Japanese Society of Chemotherapy.

In the next data set the test system is S. pneumoniae 104835. Described as above. To be noted: Streptococcus pneumoniae. It is filed as cell-based. As for the experimental part:
as §1

Data set [2] deals with S. pyogenes JCM5674(ATCC12344). Described as above. The class given is cell-based. The settings on record: Streptococcus pyogenes. As for the experimental part:
as §1

For a further data set, the system named is S. epidermidis 56500. The data set is described as above. To be noted: Staphylococcus epidermidis. It is filed as cell-based. How it is done:
as §1

A further data set has as its system S. aureus FDA 209-P. Described as above. It is filed as cell-based. To be noted: Staphylococcus aureus, FDA209. As for the experimental part: as §1
For a further data set, the system named is S. aureus 870307. Described as above. The class given is cell-based. The settings on record: Staphylococcus aureus. How it is done: as §1
The test system of another data set is P. aeruginosa PAO1. The data set is described as above. It is filed as cell-based. The settings on record: Pseudomonas aeruginosa. As for the experimental part: as §1
For a further data set, the system named is S. pneumoniae J24. Described as above. It is filed as cell-based. The settings on record: Streptococcus pneumoniae. As for the experimental part: as §1
The test system of the next data set is E. faecalis 19433. Described as above. The class given is cell-based. To be noted: Enterococcus faecalis. How it is done: as §1
The next data set deals with E. cloacae 03400. The description is as above. It is filed as cell-based. To be noted: Enterobacter cloacae. As for the experimental part:
as §1

Another data set deals with P. mirabilis 08103. Described as above. It is filed as cell-based. The settings on record: Proteus mirabilis. How it is done:
as §1

Data set [3] has as its system M(B). Caterrhalis ATCC25238. The data set is described as above. The class given is cell-based. As for the experimental part: as §1
In a further data set the test system is E. coli NIHJ. The description is as above. It is filed as cell-based. The settings on record: Escherichia coli. As for the experimental part:
as §1

Another data set relates to K. pneumoniae TYPE 1. The description is as above. The class given is cell-based. To be noted: Klebsiella pneumoniae, TYPE1. As for the experimental part:
as §1

The next data set concerns S. marcescens 10100. The description is as above. It is filed as cell-based. The settings on record: Serratia marcescens. As for the experimental part:
as §1

Setting [4] is: H. influenzae ATCC49247 (first half of Table 2), read-out: MIC, H. influenzae ATCC49247.
The mark [5] stands for this setting: M(B). Caterrhalis ATCC25238 (first half of Table 2), read-out: MIC, M(B). Caterrhalis ATCC25238.

As a reminder, the melting point is the temperature, or range, at which the solid turns liquid.

Structures are written as SMILES. Converted amounts (≈) assume the structure as drawn. Where two headings read alike, the source gives them in different places.

With `N[C@@]12CCC[C@@H]1CN(c1c(F)cc3c(=O)c(C(=O)O)cn(C4CC4)c3c1F)C2` [formula 365, reference compound], in [1], the phototoxicity entry is given as “positive”. The induction of micronuclei result in the data set with mouse bone marrow was “positive”.
`COc1c(N2C[C@H]3CC=C[C@@]3(N)C2)c(F)cc2c(=O)c(C(=O)O)cn([C@@H]3C[C@@H]3F)c12` [Example 24, 7-[(1S,5R)-1-Amino-3-azabicyclo[3.3.0]oct-7-en-3-yl]-6-fluoro-1-[(1R,2S)-2-fluorocyclopropyl]-8-methoxy-1,4-dihydro-4-oxoquinoline-3-carboxylic acid] yielded a melting point of 206 to 208 °C. In addition, the MIC in the data set on H. influenzae ATCC49247 (setting [4]) amounted to 0.006 µg/mL (≈ 0.0144 µM). This compound registered an MIC in the data set on S. pneumoniae 104835 of 0.39 µg/mL (≈ 0.934 µM). This compound registered an MIC in [2] of 0.1 µg/mL (≈ 0.24 µM). The compound further gave an MIC against S. epidermidis 56500 of 0.1 µg/mL (≈ 0.24 µM). Besides, the MIC in the data set on S. aureus FDA 209-P worked out at 0.025 µg/mL (≈ 0.0599 µM). The MIC in the data set with S. aureus 870307 is 0.78 µg/mL (≈ 1.87 µM). This compound showed an MIC with P. aeruginosa PAO1 of 0.39 µg/mL (≈ 0.934 µM). Also, in the data set on S. pneumoniae J24, the MIC came out at 0.05 µg/mL (≈ 0.12 µM). Also, the MIC in the data set with E. faecalis 19433 amounted to 0.1 µg/mL (≈ 0.24 µM). Also, the MIC against E. cloacae 03400 came to 0.025 µg/mL (≈ 0.0599 µM). In the data set with P. mirabilis 08103, the MIC came to 0.025 µg/mL (≈ 0.0599 µM). Further, the MIC in [3] (setting [5]) was found to be 0.05 µg/mL (≈ 0.12 µM). In the data set with E. coli NIHJ, this compound gave an MIC of 0.025 µg/mL (≈ 0.0599 µM). The same compound had an MIC with K. pneumoniae TYPE 1 of 0.1 µg/mL (≈ 0.24 µM). For the same compound, the MIC with S. marcescens 10100 amounted to 0.2 µg/mL (≈ 0.479 µM).
For `COc1c(N2C[C@]3(N)CCC[C@]3(F)C2)c(F)cc2c(=O)c(C(=O)O)cn([C@@H]3C[C@@H]3F)c12` [Example 15, 7-[(1R,5S)-1-Amino-5-fluoro-3-azabicyclo[3.3.0]octan-3-yl]-6-fluoro-1-[(1R,2S)-2-fluorocyclopropan-1-yl]-1,4-dihydro-8-methoxy-4-oxoquinoline-3-carboxylic acid], the melting point was 191 to 195 °C (dec.). In addition, in the data set on H. influenzae ATCC49247 (setting [4]), the MIC is at most 0.003 µg/mL. In the data set with S. pneumoniae 104835, this compound came in with an MIC of 0.39 µg/mL (≈ 0.892 µM). Besides, the MIC in data set [2] is 0.05 µg/mL (≈ 0.114 µM). The compound further had an MIC against S. epidermidis 56500 of 0.05 µg/mL (≈ 0.114 µM). For the same compound, in the data set with S. aureus FDA 209-P, the MIC was 0.012 µg/mL (≈ 0.0274 µM). For the same compound, the MIC against S. aureus 870307 is 0.39 µg/mL (≈ 0.892 µM). In the data set with P. aeruginosa PAO1, this compound registered an MIC of 0.78 µg/mL (≈ 1.78 µM). The MIC against S. pneumoniae J24 worked out at 0.05 µg/mL (≈ 0.114 µM). The MIC against E. faecalis 19433 is 0.2 µg/mL (≈ 0.457 µM). The same compound yielded an MIC with E. cloacae 03400 of 0.025 µg/mL (≈ 0.0572 µM). Also, the MIC in the data set with P. mirabilis 08103 came out at 0.025 µg/mL (≈ 0.0572 µM). For the same compound, in data set [3] (setting [5]), the MIC stood at 0.025 µg/mL (≈ 0.0572 µM). Further, the MIC with E. coli NIHJ turned out to be 0.006 µg/mL (≈ 0.0137 µM). This compound returned an MIC in the data set on K. pneumoniae TYPE 1 of 0.05 µg/mL (≈ 0.114 µM). Also, the MIC against S. marcescens 10100 was determined as 0.2 µg/mL (≈ 0.457 µM).
As to `COc1c(N2C[C@@H]3CCCC[C@@]3(N)C2)c(F)cc2c(=O)c(C(=O)O)cn([C@@H]3C[C@@H]3F)c12` [Example 31, 7-[(1S,6S)-1-Amino-8-azabicyclo[4.3.0]nonan-8-yl]-6-fluoro-1-[(1R,2S)-2-fluorocyclopropyl]-8-methoxy-1,4-dihydro-4-oxoquinoline-3-carboxylic acid], the MIC in the data set with H. influenzae ATCC49247 (ATCC 25238 / ATCC 49247, H. influenzae ATCC25238 as printed (second half of Table 2), read-out: MIC, H. influenzae ATCC25238) came out at 0.012 µg/mL (≈ 0.0277 µM); with S. pneumoniae 104835, 0.2 µg/mL (≈ 0.461 µM); in data set [2], 0.025 µg/mL (≈ 0.0577 µM); in the data set on S. epidermidis 56500, 0.05 µg/mL (≈ 0.115 µM); in the data set with S. aureus FDA 209-P, 0.012 µg/mL (≈ 0.0277 µM); against S. aureus 870307, 0.1 µg/mL (≈ 0.231 µM). Besides, the MIC came out at 0.39 µg/mL (≈ 0.9 µM) against P. aeruginosa PAO1; 0.025 µg/mL (≈ 0.0577 µM) in the data set on S. pneumoniae J24; 0.1 µg/mL (≈ 0.231 µM) against E. faecalis 19433; 0.012 µg/mL (≈ 0.0277 µM) against E. cloacae 03400; 0.012 µg/mL (≈ 0.0277 µM) against P. mirabilis 08103; 0.025 µg/mL (≈ 0.0577 µM) in data set [3] (M(B). Caterrhalis [sic] ATCC49247 (Table 2), read-out: MIC, M(B). Caterrhalis ATCC49247). For the same compound, the values for the MIC with E. coli NIHJ, against K. pneumoniae TYPE 1 and in the data set on S. marcescens 10100 were 0.006 µg/mL (≈ 0.0138 µM), 0.05 µg/mL (≈ 0.115 µM) and 0.1 µg/mL (≈ 0.231 µM), respectively.
